{"source": "patent US9012407B2", "about": "“Therapies which act on neuropeptide S receptors” (The Regents of the University of California, priority 2004, dated 2015)", "key": {"C57Bl/6 mice": {"system": "C57Bl/6 mice", "assay": "Locomotor activity after i.c.v. administration in naive and habituated mice", "format": "in vivo", "details": "for locomotor activity: naive and habituated mice, 60 min observation", "protocol": "In view of the NPSR sites of expression and the prominent expression of the NPS precursor in LC area, we hypothesized that NPS may be involved in arousal and anxiety. To start this investigation, we tested the effects of NPS on locomotor activity in both naive and habituated mice (FIG. 7A).\nMale C57Bl/6 mice (National Cancer Institute, Bethesda, MD), age 10-14 weeks, were group-housed (4 animals per cage) under controlled conditions (temperature 21±2° C.; relative humidity 50-60%; 12-hour light-dark cycle, lights on 6:00 AM) with free access to food and water. Prior to drug injections, mice were briefly anesthetized with halothane. NPS was dissolved in phosphate-buffered saline (PBS, pH 7.4) and injected i.c.v. (total volume: 2 μl) as described before (Laursen and Belknap, 1986). Mice were allowed to recover for 5 min and then placed in the observation apparatus.\nLocomotion was monitored in rectangular plexiglass boxes (60×40×50 cm). Horizontal activity was measured over 60 min by 18×12 infrared sensors placed 2 cm above the floor. A second row of sensors at 8 cm above the floor was used to record rearing events. The imaginary central zone was defined as a 30×20 cm rectangle in the middle of each observation area. Data were collected using MatLab (Mathworks, Natick, Mass.). Experimental procedures for open field, elevated plus-maze and light-dark box were described previously (Köster et al., 1999). Marble burying was measured in mice placed individually in polypropylene cages (30×18×12 cm) containing 18 glass marbles (1.5 cm diameter) evenly spaced on 5 cm deep rodent bedding (bed-o'cob, The Andersons Inc., Maumee, Ohio) (Njung'e and Handley, 1991). No food or water was present during the observation period. Cages were covered with a metal grid and the number of marbles covered at least two-thirds was counted after 30 min."}, "Sprague-Dawley rats": {"system": "Sprague-Dawley rats", "assay": "Sleep-wake EEG/EMG recording after i.c.v. administration in rats", "format": "in vivo", "details": "for share of first hour of recording spent in wakefulness: saline 45%", "protocol": "Rats were implanted with a standard set of electrodes and electroencephalograms (EEG) and electromyograms (EMG) were recorded after i.c.v. administration of NPS. Polygraphic recordings of vigilance states indicate that rats treated with 0.1 nmole and 1.0 nmole of NPS spent up to 69% and 87%, respectively, of the first hour of recording in wakefulness, compared to 45% for saline treatment (F2,21=16.80; p<0.01) (FIG. 7B).\nFor sleep studies, adult male Sprague-Dawley rats (250-300 g) were implanted under halothane anesthesia (1-2%) with a stainless steel cannula for i.c.v. administration and a standard set of stainless steel screw electrodes for chronic sleep recordings as reported previously (Bourgin et al., 2000). Rats were injected with NPS or vehicle (5 μl) at the beginning of the light cycle and cortical activity was recorded over 6 hours. All animal experiments had been approved by the local IACUC committee and were done in accordance with federal regulations and guidelines on animal experimentation."}, "NPSR Ile^107": {"target": "T1, NPSR Ile^107 (Homo sapiens, UniProt Q6W5P4, N107I)", "T1 construct": "The Ile^107 isoform of NPSR was generated by PCR using synthetic oligonucleotides and the Quik Change Site-Directed Mutagenesis kit from Stratagene; expressed in transfected cells", "T1 sequence (Q6W5P4 1-371 N107I)": "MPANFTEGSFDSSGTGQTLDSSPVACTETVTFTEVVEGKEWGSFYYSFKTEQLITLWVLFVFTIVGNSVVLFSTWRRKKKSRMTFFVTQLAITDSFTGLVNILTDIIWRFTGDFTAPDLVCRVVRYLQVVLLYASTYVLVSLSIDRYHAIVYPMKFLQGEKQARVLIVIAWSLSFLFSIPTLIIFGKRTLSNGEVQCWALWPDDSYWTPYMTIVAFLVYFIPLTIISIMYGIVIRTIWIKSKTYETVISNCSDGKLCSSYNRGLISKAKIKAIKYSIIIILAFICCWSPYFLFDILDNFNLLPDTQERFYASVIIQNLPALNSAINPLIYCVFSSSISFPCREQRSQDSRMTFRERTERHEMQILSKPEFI", "assay": "Intracellular Ca2+ mobilization (FLIPR) in HEK 293 cells stably expressing NPSR Ile107", "format": "cell-based", "details": "Ca2+ mobilization, cAMP formation or MAPK phosphorylation", "protocol": "Changes of agonist-induced intracellular Ca^2+ were measured using the FLIPR technology as described before (5, 6). NPS and truncated NPS peptides were a gift from Phoenix Pharmaceuticals (Belmont, Calif.). Dose-response curves were calculated using GraphPad Prism (Graph Pad, San Diego). Mean EC50 values of populations of stable clones expressing either wildtype or mutant NPSR were compared using unpaired t-test and p<0.05 was considered significant.\nTwo cells lines expressing similar levels (measured by radioligand binding; see below) of either NPSR WT or NPSR Ile were chosen for detailed analyses of pharmacological parameters. […] In order to investigate whether this tenfold increase in agonist potency at NPSR lie was a general property of the receptor protein we compared a large number of stable clones expressing either NPSR WT or NPSR Ile^107 by establishing dose-response curves for each construct and calculating mean EC50 values for the populations."}, "[1]": {"system": "human colon cancer cell line DLD-1", "assay": "Cell proliferation, [3H]-thymidine incorporation in DLD-1 cells (negative control line)", "format": "cell-based", "details": "no NPSR transcripts", "protocol": "Cells were seeded in 24-well plates and grown overnight to 60-70% confluency. Following 24 h serum-starvation, 2 μCi of methyl-[^3H] thymidine was added together with increasing concentrations of NPS. 500 nM PGE2 served as a positive control. After 3 h incubation cells were washed 3 times with PBS and then lysed with 0.5 N NaOH. The lysate was neutralized with 0.5 N HCl and aliquots were counted in a liquid scintillation counter for incorporated radioactivity."}, "[2]": {"details": "i.c.v., rats, compared with saline"}}, "data": [{"substance": "NPS: neuropeptide S, endogenous NPSR ligand; species of the peptide not stated at the place of the result (SFRNGVGTGMKKTSFQRAKS)", "values": [{"measurement": "locomotor activity", "setting": "C57Bl/6 mice; 0.1 nmole i.c.v.", "result": "significant increase"}, {"measurement": "locomotor activity", "setting": "C57Bl/6 mice; 1 nmole i.c.v.", "result": "significant increase"}, {"measurement": "total distance traveled, percentage of time moving, number of rearing events and center entries", "setting": "C57Bl/6 mice; 0.1 and 1 nmole i.c.v., mice", "result": "significantly increased"}, {"measurement": "share of first hour of recording spent in wakefulness", "setting": "Sprague-Dawley rats; 0.1 nmole i.c.v., rats", "result": "up to 69%"}, {"measurement": "share of first hour of recording spent in wakefulness", "setting": "Sprague-Dawley rats; 1.0 nmole i.c.v., rats", "result": "≤ 87", "unit": "%"}, {"measurement": "rebound in amount of non-REM sleep, increase vs. saline", "setting": "Sprague-Dawley rats; fourth hour post injection, rats", "result": 48, "unit": "%"}, {"measurement": "mean duration of wakefulness episodes", "setting": "Sprague-Dawley rats; i.c.v., rats, compared to saline group", "result": "significant increase"}, {"measurement": "amount of REM sleep", "setting": "Sprague-Dawley rats; [2]", "result": "significantly reduced"}, {"measurement": "amount of slow wave sleep stage 1 (SWS1)", "setting": "Sprague-Dawley rats; [2]", "result": "significantly reduced"}, {"measurement": "amount of slow wave sleep stage 2 (SWS2)", "setting": "Sprague-Dawley rats; [2]", "result": "significantly reduced"}, {"measurement": "rebound in amount of non-REM sleep, increase vs. saline", "setting": "Sprague-Dawley rats; second hour post injection, rats", "result": 20, "unit": "%"}, {"measurement": "duration of arousal effect", "setting": "Sprague-Dawley rats; single i.c.v. administration", "result": "within the first hour post injection"}, {"measurement": "efficacy at NPSR Ile107 as compared to the wildtype receptor", "setting": "NPSR Ile^107", "result": "ten-fold"}, {"measurement": "thymidine incorporation", "setting": "[1]", "result": "no NPS-dependent thymidine incorporation"}]}]}
